Here are results for 108 compounds from ChEMBL document CHEMBL3988442, “University of Dundee, Small-Polar-MMV Screening Library” (2021).

The test has as its target Tryptophan--tRNA ligase (Mycobacterium tuberculosis (strain ATCC 25618 / H37Rv), UniProt P9WFT3). The test is described as follows: Biochemical assay for Mt-TrpRS. Type of test: functional.

Sequence of Tryptophan--tRNA ligase (P9WFT3 whole entry): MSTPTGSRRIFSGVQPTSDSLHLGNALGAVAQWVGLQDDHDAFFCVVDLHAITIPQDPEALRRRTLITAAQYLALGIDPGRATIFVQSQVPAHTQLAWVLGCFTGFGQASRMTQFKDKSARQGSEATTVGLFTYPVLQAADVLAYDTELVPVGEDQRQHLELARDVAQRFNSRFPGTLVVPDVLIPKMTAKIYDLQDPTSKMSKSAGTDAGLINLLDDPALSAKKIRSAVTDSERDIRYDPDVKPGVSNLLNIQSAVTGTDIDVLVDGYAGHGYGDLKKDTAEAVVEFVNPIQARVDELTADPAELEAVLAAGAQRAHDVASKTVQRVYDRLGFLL

Take `CO[C@H]1CC[C@H]2[C@H]1OCCN2C(=O)C1=CCCC1`: the IC50 is > 195 µM.
For `Cc1cc(CN2CCN(C(=O)NCc3ccco3)CC2)no1` the value was > 195 µM.
In the case of `O=S(=O)(c1ccccc1)N1C(CN2CCOCC2)[C@]2(O)CC[C@H]1CC2` (stereo partly drawn), the IC50 is > 195 µM.
For `CNC(=O)c1cnn2c(C3CCCN3C)ccnc12` (stereo not drawn) the value was > 195 µM.
The value for `COc1ccc(CNc2cnn(CC(F)F)c2)cc1` was > 195 µM.
For `Cc1cccnc1C(=O)N1CCC(Cc2cnc3[nH]ccc3c2)CC1` the value was > 195 µM; for `O=C(c1ccco1)N1C(CO)[C@]2(O)CC[C@H]1CC2` (stereo partly drawn), > 195 µM; for `CS(=O)(=O)NC1CCN(C(=O)CCC2CCCO2)CC1` (stereo not drawn), > 195 µM.
On to `c1cncc(CN2CCN3C[C@H](Oc4cncnc4)C[C@H]3C2)c1`, for which the IC50 is > 195 µM.
`COc1c(C(=O)N2CCC(CSc3ccccc3)C2)c(C)nn1C` (stereo not drawn): the concentration for half-maximal inhibition (IC50) is > 195 µM.
As for `Cn1ccc(C(=O)N2CCCC2c2[nH]ncc2C(N)=O)n1` (stereo not drawn), the IC50 is > 195 µM.
`O=C1CN(C(=O)c2cccc(C(F)(F)F)c2)CC(O)CN1CC1CC1` (stereo not drawn): the IC50 is > 195 µM.
With `Cc1csc(CCNC(=O)NC(C)Cn2cccn2)n1` (stereo not drawn), the IC50 is > 195 µM.
For `Cc1ncsc1CN1CCN(C2CCOCC2)CC(C(N)=O)C1` (stereo not drawn) the value was > 195 µM.
`CN(C)C(=O)N1CC[C@@H](c2ccc3ccccc3c2)[C@H](O)C1`: the IC50 is > 195 µM.
Take `NC(=O)CN1CCCC(Cc2ccc(N3CCOCC3)nn2)C1` (stereo not drawn): the IC50 was > 195 µM.
Take `Cc1cc(CNC(=O)N(Cc2ccc(F)cc2F)C2CC2)no1`: the IC50 is > 195 µM.
Turning to `CC(=O)N1CCCC(c2ccccn2)C1` (stereo not drawn), the IC50 is > 195 µM.
Take `NC(=O)C1(CCCc2ccccn2)CCCN(Cc2ncc[nH]2)C1` (stereo not drawn): the IC50 was > 195 µM.
Regarding `CN1CCN(Cc2cn3c(n2)CN(Cc2ccncc2)CC3)CC1`, the IC50 was > 195 µM.
The value for `CCN(CC)Cc1ccc(C(=O)N2CCN(CC(C)O)CC2)o1` (stereo not drawn) was > 195 µM; that for `Cc1cc(-c2cnn(CCNC(=O)Cc3ccccn3)c2C2CC2)on1` was > 195 µM; that for `CN1CCO[C@@H]2CN(C(=O)NCc3ccccc3)CC[C@@H]2C1` was > 195 µM.
`COCC(O)CN1CCC(=O)N(Cc2ccco2)Cc2ccccc21` (stereo not drawn): the concentration for half-maximal inhibition (IC50) is > 195 µM.
Turning to `Fc1cccc(-c2nc(CN3CCCC3Cn3cccn3)co2)c1` (stereo not drawn), the half-inhibitory concentration (IC50) was > 195 µM.
Regarding `COCCn1cnnc1C1CCCN(C(C)C)C1` (stereo not drawn), the IC50 was > 195 µM.
For `O=C(c1cnccn1)N1CCC2(CCCN(Cc3ccoc3)C2)C1` (stereo not drawn), the IC50 is > 195 µM.
Regarding `CCn1cc(C(=O)N2CCCC(c3nccs3)C2)cn1` (stereo not drawn), the IC50 is > 195 µM.
With `C[C@@]1(O)CCN(Cc2cc[nH]n2)C[C@H]1Oc1cccc(F)c1`, the IC50 is > 195 µM.
For the compound `NC(=O)C1(CCCc2ccccn2)CCCN(Cc2ccncc2)C1` (stereo not drawn), the IC50 was > 195 µM.
On to `CS(=O)(=O)CC(=O)N1C[C@H]2CCC[C@@]2(COc2ccccn2)C1`, for which the IC50 is > 195 µM.
For `Cn1cccc1CNC(=O)CCCc1nnc2ccccn12` the value was > 195 µM; for `CCC(NC(=O)c1nn(C)cc1C(=O)O)c1ccc(C)cc1C` (stereo not drawn), > 195 µM; for `CC(C)(C)OC(=O)N1CC(=O)N(CCc2ccccc2)CC(O)C1` (stereo not drawn), > 195 µM.
Take `Cc1ccn(-c2ccc(N3CCCN(Cc4ccccc4)CC3)nn2)n1`: the IC50 was > 195 µM.
Take `O=C1CCC(=O)N1c1nn(Cc2c(F)cccc2Cl)cc1Cl`: the IC50 was > 195 µM.
The value for `CS(=O)(=O)c1nccn1Cc1ccc(F)cc1Cl` was > 195 µM; that for `Cn1cncc1CN1CC[C@](C)(O)[C@@H](Oc2cccc(F)c2)C1` was > 195 µM.
As to `O=C(CN1CCOC1=O)N1CC[C@@H](c2ccc3ccccc3c2)[C@H](O)C1`, the IC50 is > 195 µM.
Take `c1csc(CN2C[C@H](OCC3CC3)[C@H]3COC[C@H]32)n1`: the half-inhibitory concentration (IC50) is > 195 µM.
As to `Cc1noc(C2(C)CCCN(C(=O)c3cccnc3)C2)n1` (stereo not drawn), the IC50 was > 195 µM.
Consider `CC(NCc1c(C(C)C)nn(C)c1N1CCOCC1)C(=O)N(C)C` (stereo not drawn), for which the IC50 was > 195 µM.
For `CCCNc1ccc(C(=O)NCCc2cccc(OC)c2)cn1` the value was > 195 µM.
As to `O=C1NCC[C@]12CN(Cc1ccco1)C[C@H]2c1ccccc1`, the IC50 is > 195 µM.
On to `COCCN1CCN(CCS(C)(=O)=O)CC1C` (stereo not drawn), for which the IC50 is > 195 µM.
Regarding `CS(=O)(=O)N1C[C@@H]2CCN(C(=O)c3cscn3)[C@@H]2C1`, the IC50 was > 195 µM.
For `NC(=O)CN1CCCC(Cc2ccc(N)nn2)C1` (stereo not drawn) the value was > 195 µM.
For `O=C(O)C1(Cc2cc(-c3ccccc3F)no2)CCOCC1` the value was > 195 µM.
As for `Cc1cc(CN2CC[C@@H]3O[C@@H](c4nnc(C)o4)C[C@H]3C2)no1`, the IC50 is > 195 µM.
With `NC(=O)N1CCc2ncc(CNC(=O)CC3CC3)n2CC1`, the IC50 was > 195 µM.
The value for `CC(C)OCCCNC(=O)CS(=O)(=O)Cc1ccc(Cl)cc1` was > 195 µM; that for `CCCn1cc(CN2CCCC2c2nccc(CN(C)C)n2)cn1` (stereo not drawn) was > 195 µM; that for `CCCC1CN(CCOc2ccccc2)C(=O)c2cccnc2O1` (stereo not drawn) was > 195 µM.
As for `CCOCCN1CCC(C(=O)c2cc(F)ccc2F)CC1`, the 50% inhibitory concentration (IC50) is > 195 µM.
Regarding `COc1c(C(=O)N2CCNC(=O)C2)cnc2c1c(C)nn2C`, the IC50 is > 195 µM.
For `Cn1c(=O)c2cc(C(=O)NCCc3ccccc3)ccc2n(C)c1=O` the value was > 195 µM; for `COc1cccc(S(=O)(=O)N2C[C@@H](O)[C@H](N(C)C)C2)c1`, > 195 µM; for `CCC(CC)c1nnc(NC(=O)NC(C)Cn2cccn2)s1` (stereo not drawn), > 195 µM.
With `CN(Cc1cccnc1)Cc1cncc2c1CCN(c1ccccn1)C2`, the IC50 was > 195 µM.
For `COCCN1CC=C(c2cccc(OC)c2)CC1`, the IC50 was > 195 µM.
The value for `Nc1nccc(C2CCN(CCO)C2)n1` (stereo not drawn) was > 195 µM; that for `Cc1ncsc1C(=O)NC1CCN(CCC#N)CC1` was > 195 µM; that for `Fc1cccc(CN2C[C@@H]3CN(c4ncccn4)C[C@@H]3C2)c1` was > 195 µM.
Consider `Cc1cc(C)n(NC(=O)c2ccccc2F)c(=O)c1`, for which the IC50 is > 195 µM.
On to `Cc1csc(Nc2nccnc2C2CCCN2CC(N)=O)n1` (stereo not drawn), for which the IC50 is > 195 µM.
As to `CN1CC[C@@H]2OC[C@H](C(=O)N(C)Cc3ccccn3)C[C@@H]2C1`, the IC50 is > 195 µM.
As to `CC(C)c1nc(CN2CCC(c3ccnn3CCO)CC2)no1`, the IC50 was > 195 µM.
As to `CC(=O)NC[C@]1(O)CCN(C(=O)c2ccc(F)c(Cl)c2)C[C@H]1O`, the half-inhibitory concentration (IC50) is > 195 µM.
With `CCCS(=O)(=O)N1CC(=O)N(Cc2cccc(OC)c2OC)CC(O)C1` (stereo not drawn), the IC50 was > 195 µM.
As to `Cc1nnc2n1CCN(Cc1csc(-c3ncccn3)n1)C2`, the IC50 is > 195 µM.
In the case of `CCn1ncc2c1C(COC)N(C(=O)c1cscn1)CC2` (stereo not drawn), the IC50 is > 195 µM.
The value for `Cc1nn(CC(=O)NCc2cc3n(n2)CCCN(CC(C)C)C3)cc1Cl` was > 195 µM.
Consider `COc1ccccc1NC(=O)NCc1cn[nH]c1`, for which the IC50 is > 195 µM.
Take `CC(C)CC(=O)N1CC(=O)N(CCc2ccccc2)CC(O)C1` (stereo not drawn): the half-maximal inhibitory concentration (IC50) is > 195 µM.
For `CN(C)CCNC(=O)c1nc2c(s1)CCCN2C(=O)C1CC1` the value was > 195 µM.
As to `O=C(C1CCCC1)N1CCC(c2n[nH]c3nccnc23)CC1`, the 50% inhibitory concentration (IC50) is > 195 µM.
Take `Cc1cnc(CC2COCCN(Cc3nccn3C)C2)cn1` (stereo not drawn): the IC50 is > 195 µM.
The value for `Cn1cccc1C(=O)N1CC2(CCN(C(=O)c3cccnc3)C2)C1` was > 195 µM.
The value for `CC(C)c1nc(CN2CCCC(Cn3cncn3)C2)cs1` (stereo not drawn) was > 195 µM.
On to `Cc1cc(CS(=O)(=O)CC(=O)N2c3ccccc3CC2C)no1` (stereo not drawn), for which the IC50 is > 195 µM.
In the case of `CCCS(=O)(=O)N1C[C@@H](c2ccccc2)[C@@]2(CCNC2=O)C1`, the IC50 was > 195 µM.
In the case of `O=C(c1ccco1)N1CCC2(CCCN(c3ncccn3)C2)C1` (stereo not drawn), the IC50 was > 195 µM.
Regarding `CCS(=O)(=O)N1CCc2c(COCc3ccncc3)cncc2C1`, the IC50 is > 195 µM.
For `COc1cccc(C2=CCN(CCN3CCOC3=O)CC2)c1` the value was > 195 µM.
In the case of `COCCC(=O)N1CCCC(c2nc(O)cc(-c3ccncc3)n2)C1` (stereo not drawn), the IC50 is > 195 µM.
In the case of `c1cn(-c2cncc(C3CCNCC3)n2)cn1`, the half-maximal inhibitory concentration (IC50) is > 195 µM.
Consider `CN(CC(=O)Nc1cccnc1)C1CCCN(c2cccnn2)C1` (stereo not drawn), for which the IC50 is > 195 µM.
For `COc1cccc(CN2CC(O)CN(C(=O)C(C)(C)C)CC2=O)c1OC` (stereo not drawn) the value was > 195 µM; for `CC(C)N(C)Cc1cncc2c1CCN(Cc1ccoc1)C2`, > 195 µM.
Take `Cc1nc(N(C)CCN(C)C)c2cnn(C)c2n1`: the IC50 was > 195 µM.
Turning to `Cc1cc(NC(=O)CN2CCc3cncnc3C2)no1`, the IC50 is > 195 µM.
With `CNc1cccc(C2CCCN(C(=O)c3cccnc3)C2)n1` (stereo not drawn), the IC50 is > 195 µM.
For the compound `O=C([C@@H]1C[C@@H]2CCN(Cc3ccoc3)C[C@H]2O1)N1CCCC1`, the IC50 was > 195 µM.
For `Cc1cccc(CN2CCCC2c2cccc(CCC(=O)O)n2)c1` (stereo not drawn), the 50% inhibitory concentration (IC50) was > 195 µM.
For the compound `CC1CN(Cc2ccccc2)CCCN1CCNS(C)(=O)=O` (stereo not drawn), the concentration for half-maximal inhibition (IC50) was > 195 µM.
In the case of `NC(=O)C1CCN(C(C(=O)O)c2ccc(Cl)c(C(F)(F)F)c2)CC1` (stereo not drawn), the IC50 is > 195 µM.
For `CCN1Cc2cc(F)ccc2N(CC(O)C(F)(F)F)CCC1=O` (stereo not drawn) the value was > 195 µM; for `Cn1ccc(C(=O)N2CCCC(c3cc(O)n(C)n3)C2)n1` (stereo not drawn), > 195 µM.
For `COc1cc(NC2CCCNC2)cc(OC)c1` (stereo not drawn), the IC50 was > 195 µM.
Consider `Cc1cn(Cc2ccccc2)nc1N`, for which the IC50 was > 195 µM.
With `CNC(=O)c1cc2ccccc2n1C`, the IC50 was > 195 µM.
As for `CN(C)C(=O)c1cncnc1-c1ccc(CNC(=O)C2CCCO2)cc1` (stereo not drawn), the IC50 is > 195 µM.
With `Cc1cc2cc(C(=O)N3C[C@H](O)[C@]4(CCCO4)C3)ccc2o1`, the IC50 is > 195 µM.
The value for `NCC(=O)N1CCCC1c1n[nH]cc1-c1ccccc1F` (stereo not drawn) was > 195 µM.
Take `O=C(c1cc2c(s1)CCCC2)N1CCc2nc(C3CCCN3)ncc2C1` (stereo not drawn): the IC50 is > 195 µM.
For `Cc1c[nH]nc1C1CCN(C(=O)C2CCC2)CC1` the value was > 195 µM; for `C[C@]1(O)CN(CCO)CC[C@@H]1Oc1cccc(F)c1`, > 195 µM.
As for `O=C(c1ccccn1)N1CCC(Cc2cnc3[nH]ccc3c2)CC1`, the IC50 is > 195 µM.
